Data set [1] in a line: Water sorption isotherms (DVS). The data set is classed as physicochemical. The settings on record: sorption isotherms at 25° C. The procedure:
To study the hygroscopical behaviour of this material, sorption isotherms are registered, e.g. on a DVS-1 water sorption monitor from Surface Measurement Systems. Adsorption and desorption isotherms are performed at 25° C. with 10% r.h. step intervals ranging from 10% r.h. up to 90% r.h.

Data set [2] in a line: Solid state chemical stability. The data set is classed as physicochemical. The procedure: The crystalline free base form of 3-{3-[1-(4-Dimethylaminomethyl-phenylamino)-1-phenyl-meth-(Z)-ylidene]-2-oxo-2,3-dihydro-1H-indol-6-yl}-propynoic acid ethylamide according to this invention has further added properties, such as e.g. no sensitivity towards heat, humidity and photolysis in solid state (solid state chemical stability, e.g. 3d @ 70° C. and >90% r.h.: <1% decomposition; 3d @ 105° C.: <1.5% decomposition; 24 h under UV-radiation @ 250 W/m^2: <1.5% decomposition).

Data set [3] deals with phospho-histone H3 in NCI-H460 cells. The data set is described as follows: Analysis of histone H3 phosphorylation in NCI-H460 cells (Cellomics). The format is cell-based. The settings on record: Homo sapiens, synchronized H460 NSCLC cells, 1 h treatment, molecular phosphorylation assay, read-out: EC50 for reduction of phospho-histone H3. An excerpt: This CDK1 inhibitor arrests cells in G2. […] The final DMSO concentration was 0.1%.

Data set [4] deals with phospho-ERK in SK-MEL-28 cells. The data set is described as follows: Fast Active Cell-Based ELISA (FACE) SK-MEL-28 p-ERK. The following applies: Homo sapiens, SK-MEL 28 melanoma cells, read-out: EC50 for reduction of phospho-ERK. An excerpt: Fast Active Cell-Based ELISA (FACE) SK-MEL-28 p-ERK:
The supernatant is removed.

Data set [5] relates to H460 cells. In words: Polyploidy by DNA content analyses (Cellomics ArrayScan). The format is cell-based, human. The settings on record: 7 nM, 42 h exposure.
The test system of data set [6] is tumors derived from melanoma cell line G361^V600V/E. In words: Human melanoma xenograft G361 in nude mice. The format is in vivo. The following applies: oral qd, Compound A 10 mg/kg, vemurafenib 120 mg/kg; for TGI@d23 [%]: day 23; for CR@d30 [x/7] / PR@d30 [x/7]: day 30. How it is done:
Athymic female BomTac:NMRI-Foxn1^nu mice about six weeks of age are allowed to adjust to ambient conditions for at least five days before they are used for experiments. The animals are housed under standardized conditions in groups of 7-10 in Macrolon® type III cages. Standardized diet (PROVIMI KLIBA) and autoclaved tap water are provided ad libitum. To establish subcutaneous tumors, cells are harvested by trypsinization, centrifuged, washed and resuspended in ice-cold PBS+5% FCS. 100 μL of cell suspension containing, depending on cell type, about 10^6 to 10^7 cells are injected subcutaneously into the right flank of a nude mouse (one site per mouse). Mice are randomly distributed between the treatment and the vehicle control group (12 days after cell injection) when tumors are well established and have reached volumes of 40-120 mm^3
The tumor diameter is measured three times a week (Monday, Wednesday and Friday) with a caliper. The volume of each tumor (in mm^3) is calculated according to the formula “tumor volume=length×diameter^2×π/6”. To monitor side effects of treatment, mice are inspected daily for abnormalities and body weight is determined three times a week (e.g. Monday, Wednesday and Friday). Animals are sacrificed at the end of the study about ten weeks after start of treatment. Animals with necrotic tumors or tumor sizes exceeding 1500 mm^3 are sacrificed early during the studies for ethical reasons.
For a quick overview of possible treatment effects the median of the tumor volume of each treatment group T is related to the median of the tumor volume of control C. Tumor growth inhibition (TGI) from day 1 until day d is calculated as: […]
wherein • C1 and T1 represent the median tumor volumes in the control and treatment groups at start of the experiment at day 1 and • Cd and Td represent the median tumor volumes in the control and treatment groups at end of the experiment at day d.
Mice with tumors derived from melanoma cell line G361^V600V/E are treated orally with the B-Raf inhibitor vemurafenib qd at doses of 120 mg/kg or with 3-{3-[1-(4-Dimethylaminomethyl-phenylamino)-1-phenyl-meth-(Z)-ylidene]-2-oxo-2,3-dihydro-1H-indol-6-yl}-propynoic acid ethylamide (Compound A) qd at doses of 10 mg/kg or with the vehicle only. In addition, mice are treated orally with B-Raf inhibitor vemurafenib qd at doses of 120 mg/kg in combination with Compound A qd at doses of 10 mg/kg.
In general terms: Xenograft models place foreign cells or tissue in a host animal.

Data set [7] in a line: Solution state stability. The format is physicochemical. The procedure: In solution state, the compound of formula (I) according to the invention show no or only minor sensitivity towards hydrolysis at pH 2.2-10 (solution state stability, e.g. 0.1M HCl, 8 h @ 37° C.: <1% decomposition; Mc Ilvaine buffer 7.4, 3d @ 60° C.: <1,5% decomposition).

“Also recorded” adds a separate entry of the source. Where only a bound is given, the exact number is not on record here.

Data on 3 compounds can be found in US20140018372A1, “CRYSTALLINE FORM OF A INDOLINONE DERIVATIVE AND ITS USE” (BOEHRINGER INGELHEIM INTERNATIONAL GMBH, priority 2012, published 2014).

A word on the EC50: it is the concentration needed to bring the measured effect to its halfway point.

For the compound `CCNC(=O)C#Cc1ccc2c(c1)NC(=O)/C2=C(\Nc1ccc(CN(C)C)cc1)c1ccccc1` [3-{3-[1-(4-Dimethylaminomethyl-phenylamino)-1-phenyl-meth-(Z)-ylidene]-2-oxo-2,3-dihydro-1H-indol-6-yl}-propynoic acid ethylamide], the hygroscopical behaviour entry in data set [1] was “not hygroscopic; also recorded: non-hygroscopic”. For the same compound, the “decomposition, solid state” value is less than 1.5% in data set [2] (24 h under UV-radiation @ 250 W/m^2); less than 1% in data set [2] (3d @ 70° C. and >90% r.h.); less than 1.5% in data set [2] (3d @ 105° C.).
Consider `CCNC(=O)C#Cc1ccc2c(c1)NC(=O)/C2=C(\Nc1ccc(CN(C)C)cc1)c1ccccc1` [Compound A, 3-{3-[1-(4-Dimethylaminomethyl-phenylamino)-1-phenyl-meth-(Z)-ylidene]-2-oxo-2,3-dihydro-1H-indol-6-yl}-propynoic acid ethylamide], for which the EC50 in data set [3] stood at 0.044 µM. Moreover, the EC50 in data set [4] is 0.059 µM. Further, in data set [5], the polyploid cells worked out at 81%. In addition, in data set [6], the “mortality [x/7]” value is on record as 1 x/7, the “TGI@d23 [%]” value was 45%, the “CR@d30 [x/7]” value was 0 x/7 and the “PR@d30 [x/7]” value amounted to 0 x/7. For the same compound, the “decomposition, solution state” value in data set [7] (0.1M HCl, 8 h @ 37° C.) is reported as less than 1%. For the same compound, the “decomposition, solution state” value in data set [7] (Mc Ilvaine buffer 7.4, 3d @ 60° C.) is listed as < 1,5%.
With `CCCS(=O)(=O)Nc1ccc(F)c(C(=O)c2c[nH]c3ncc(-c4ccc(Cl)cc4)cc23)c1F` [vemurafenib, reference compound], in data set [6], the “mortality [x/7]” value is 0 x/7, the “TGI@d23 [%]” value is 44%, the “CR@d30 [x/7]” value came out at 0 x/7 and the “PR@d30 [x/7]” value came out at 0 x/7.
